These results are taken from US7435837B2, “Dihydrobenzofuranyl alkanamine derivatives and methods for using same” (Wyeth, priority 2003, dated 2008).

As a reminder, the Ki is a measure of affinity in units of concentration, obtained from inhibition or displacement. By EC50 is commonly meant the concentration at which the effect is half-maximal.

Assay [1] addresses T1, human 5-hydroxytryptamine-2C (h5-HT2C) receptor (Homo sapiens, UniProt P28335).
T1 construct: expressed in transfected cells; host or cells: CHO (Chinese Hamster Ovary) cells; membranes
T1 sequence (P28335 33-458): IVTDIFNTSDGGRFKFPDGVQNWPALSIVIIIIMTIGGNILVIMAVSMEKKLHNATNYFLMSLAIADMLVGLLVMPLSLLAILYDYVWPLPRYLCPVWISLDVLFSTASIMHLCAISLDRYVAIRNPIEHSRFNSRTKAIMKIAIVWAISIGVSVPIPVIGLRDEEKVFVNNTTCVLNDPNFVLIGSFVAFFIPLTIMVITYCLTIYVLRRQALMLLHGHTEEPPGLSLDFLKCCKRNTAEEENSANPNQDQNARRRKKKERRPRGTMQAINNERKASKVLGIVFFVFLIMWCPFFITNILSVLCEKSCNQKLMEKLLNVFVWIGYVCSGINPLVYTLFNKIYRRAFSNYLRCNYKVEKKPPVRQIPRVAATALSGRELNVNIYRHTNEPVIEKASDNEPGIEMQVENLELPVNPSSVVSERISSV
The assay is described as follows: [125I]DOI binding to membranes of CHO cells expressing the human 5-HT2C receptor. To be noted: [125I]DOI radioligand, CHO cell membranes, room temperature 60 min; read-out: 5-HT2C Affinity Ki.

A further assay concerns the target T2, human 5-HT2C receptor (Homo sapiens, UniProt P28335).
T2 sequence (P28335 33-458): T1 sequence (P28335 33-458)
The experiment in a line: 5-HT2C receptor-stimulated calcium mobilization (FLIPR) in CHO cells.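 As to all read-outs here: Fluo-3-AM fluorescence read on FLIPR every 1 s, agonist added after 10 baseline reads, response taken as peak minus lowest raw fluorescence count.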 The assay is classed as cell-based. The conditions noted are these: for Emax: CHO; for EC50: calcium mobilization, CHO cells stably expressing human 5-HT2C, read-out: 5-HT2C Function EC50. (Calcium assays in cells follow changes in intracellular calcium, usually with a dye or a luminescent sensor.)

Setting [2] is: percentage of the response observed with a maximally effective concentration of 5-HT, read-out: 5-HT2C Function Emax (%).

Structures are written as SMILES. Read-outs that look alike come from different tables or passages of the source.

As for `Cc1cccc(-c2cc(F)cc3c2OC(CN)C3)c1` (racemic) [Example 198, (±)-{[5-fluoro-7-(3-methylphenyl)-2,3-dihydro-1-benzofuran-2-yl]methyl}amine], in assay [1], the Ki turned out to be 17 nM. Besides, on human 5-HT2C receptor (setting [2]), the Emax is 60%. Also, the EC50 at human 5-HT2C receptor is 903 nM.
On to `NCC1Cc2cc(F)cc(-c3ccc(F)cc3)c2O1` (racemic) [Example 199, (±)-{[5-fluoro-7-(4-fluorophenyl)-2,3-dihydro-1-benzofuran-2-yl]methyl}amine], for which the Ki in assay [1] amounted to 19 nM. Besides, at human 5-HT2C receptor (setting [2]), the Emax was found to be 80%. In addition, the EC50 on human 5-HT2C receptor came to 416 nM.
The like results for `NCC1Cc2cc(F)cc(-c3ccc(Cl)cc3)c2O1` (racemic) [Example 200, (±)-{[5-fluoro-7-(4-chlorophenyl)-2,3-dihydro-1-benzofuran-2-yl]methyl}amine] were, in that order, 12 nM, 80% and 369 nM.
For the compound `Cc1ccc(-c2cc(F)cc3c2OC(CN)C3)cc1` (racemic) [Example 201, (±)-{[5-fluoro-7-(4-methylphenyl)-2,3-dihydro-1-benzofuran-2-yl]methyl}amine], the Ki in assay [1] stood at 8 nM. Besides, the Emax on human 5-HT2C receptor (setting [2]) stood at 80%. On human 5-HT2C receptor, the EC50 was 396 nM.
On the same counts, the results for `COc1ccc(-c2cc(F)cc3c2OC(CN)C3)cc1` (racemic) [Example 202, (±)-{[5-fluoro-7-(4-methoxyphenyl)-2,3-dihydro-1-benzofuran-2-yl]methyl}amine] are 11 nM, 80% and 105 nM.
On the same counts, the results for `NCC1Cc2cc(F)cc(-c3ccsc3)c2O1` (racemic) [Example 203, (±)-[(5-fluoro-7-thien-3-yl-2,3-dihydro-1-benzofuran-2-yl)methyl]amine] are 8.5 nM, 80% and 187 nM.
On the same counts, the results for `NCC1Cc2cc(F)cc(-c3ccoc3)c2O1` (racemic) [Example 204, (±)-{[5-fluoro-7-(3-furyl)-2,3-dihydro-1-benzofuran-2-yl]methyl}amine] are 1.3 nM, 90% and 336 nM.
For the compound `NCC1Cc2cc(F)cc(-c3ccccn3)c2O1` (racemic) [Example 205, (±)-[(5-fluoro-7-pyridin-2-yl-2,3-dihydro-1-benzofuran-2-yl)methyl]amine], the Ki in assay [1] turned out to be 3 nM. The Emax at human 5-HT2C receptor (setting [2]) was 80%. In addition, the EC50 at human 5-HT2C receptor amounted to 280 nM.
In the case of `NCC1Cc2cc(F)cc(-c3cccnc3)c2O1` (racemic) [Example 206, (±)-[(5-fluoro-7-pyridin-3-yl-2,3-dihydro-1-benzofuran-2-yl)methyl]amine], the Ki in assay [1] came out at 1.7 nM. Besides, the Emax at human 5-HT2C receptor (setting [2]) came out at 90%. Moreover, the EC50 on human 5-HT2C receptor is 4 nM.
In the case of `NCC1Cc2cc(F)cc(-c3ccncc3)c2O1` (racemic) [Example 209, (±)-[(5-fluoro-7-pyridin-4-yl-2,3-dihydro-1-benzofuran-2-yl)methyl]amine], the Ki in assay [1] came out at 2.3 nM. The Emax at human 5-HT2C receptor (setting [2]) came out at 90%. Besides, the EC50 on human 5-HT2C receptor worked out at 57 nM.
In the case of `NCC1Cc2cc(F)cc(-c3cccc(Cl)c3Cl)c2O1` (racemic) [Example 211, (±)-{[7-(2,3-dichlorophenyl)-5-fluoro-2,3-dihydro-1-benzofuran-2-yl]methyl}amine], in assay [1], the Ki was found to be 19 nM. Moreover, the Emax on human 5-HT2C receptor (setting [2]) is 70%. Further, the EC50 on human 5-HT2C receptor is 672 nM.
The like results for `COc1cccc(-c2cc(F)cc3c2OC(CN)C3)c1OC` (racemic) [Example 212, (±)-{[7-(2,3-dimethoxyphenyl)-5-fluoro-2,3-dihydro-1-benzofuran-2-yl]methyl}amine] were, in that order, 2.4 nM, 90% and 11 nM.
On the same counts, the results for `NCC1Cc2cc(F)cc(-c3ccc(F)cc3F)c2O1` (racemic) [Example 215, (±)-{[7-(2,4-difluorophenyl)-5-fluoro-2,3-dihydro-1-benzofuran-2-yl]methyl}amine] are 5 nM, 80% and 80 nM.
Take `NCC1Cc2cc(F)cc(-c3ccc(Cl)cc3Cl)c2O1` (racemic) [Example 216, (±)-{[7-(2,4-dichlorophenyl)-5-fluoro-2,3-dihydro-1-benzofuran-2-yl]methyl}amine]: the Ki in assay [1] was found to be 0.7 nM. Also, the Emax on human 5-HT2C receptor (read-out: 5-HT2C Function Emax (%), percentage of the response observed with a maximally effective concentration of 5-HT) came to 100%. Besides, the EC50 at human 5-HT2C receptor was 0.2 nM.
In the case of `COc1ccc(-c2cc(F)cc3c2OC(CN)C3)c(OC)c1` (racemic) [Example 219, (±)-{[7-(2,4-dimethoxyphenyl)-5-fluoro-2,3-dihydro-1-benzofuran-2-yl]methyl}amine], the Ki in assay [1] is 7 nM. The Emax on human 5-HT2C receptor (setting [2]) came to 90%. In addition, at human 5-HT2C receptor, the EC50 was 79 nM.
With `NCC1Cc2cc(F)cc(-c3cc(F)ccc3F)c2O1` (racemic) [Example 220, (±)-{[7-(2,5-difluorophenyl)-5-fluoro-2,3-dihydro-1-benzofuran-2-yl]methyl}amine], the inhibition constant Ki in assay [1] came to 8 nM. Also, on human 5-HT2C receptor (setting [2]), the Emax was found to be 90%. On human 5-HT2C receptor, the concentration for a half-maximal effect (EC50) is 30 nM.
The like results for `NCC1Cc2cc(F)cc(-c3cc(Cl)ccc3Cl)c2O1` (racemic) [Example 221, (±)-{[7-(2,5-dichlorophenyl)-5-fluoro-2,3-dihydro-1-benzofuran-2-yl]methyl}amine] were, in that order, 1.4 nM, 90% and 2 nM.
The like results for `Cc1ccc(C)c(-c2cc(F)cc3c2OC(CN)C3)c1` (racemic) [Example 222, (±)-{[7-(2,5-dimethylphenyl)-5-fluoro-2,3-dihydro-1-benzofuran-2-yl]methyl}amine] were, in that order, 18 nM, 80% and 120 nM.
On to `COc1ccc(OC)c(-c2cc(F)cc3c2OC(CN)C3)c1` (racemic) [Example 223, (±)-{[7-(2,5-dimethoxyphenyl)-5-fluoro-2,3-dihydro-1-benzofuran-2-yl]methyl}amine], for which, in assay [1], the Ki was determined as 10 nM. The Emax at human 5-HT2C receptor (setting [2]) is 80%. Besides, the EC50 at human 5-HT2C receptor came to 30 nM.
As to `COc1ccc(C)c(-c2cc(F)cc3c2OC(CN)C3)c1` (racemic) [Example 224, (±)-{[5-fluoro-7-(5-methoxy-2-methylphenyl)-2,3-dihydro-1-benzofuran-2-yl]methyl}amine], in assay [1], the Ki is 18 nM. On human 5-HT2C receptor (setting [2]), the Emax turned out to be 70%. Also, at human 5-HT2C receptor, the EC50 was 455 nM.
For `COc1ccc(C)cc1-c1cc(F)cc2c1OC(CN)C2` (racemic) [Example 225, (±)-{[5-fluoro-7-(2-methoxy-5-methylphenyl)-2,3-dihydro-1-benzofuran-2-yl]methyl}amine], in assay [1], the Ki stood at 1.2 nM. Besides, the Emax at human 5-HT2C receptor (setting [2]) is 90%. On human 5-HT2C receptor, the EC50 is 3 nM.
The like results for `NCC1Cc2cc(F)cc(-c3c(F)cccc3F)c2O1` (racemic) [Example 226, (±)-{[7-(2,6-difluorophenyl)-5-fluoro-2,3-dihydro-1-benzofuran-2-yl]methyl}amine] were, in that order, 1.3 nM, 90% and 30 nM.
In the case of `Cc1cccc(C)c1-c1cc(F)cc2c1OC(CN)C2` (racemic) [Example 227, (±)-{[7-(2,6-dimethylphenyl)-5-fluoro-2,3-dihydro-1-benzofuran-2-yl]methyl}amine], the Ki in assay [1] stood at 1.5 nM. Moreover, the Emax on human 5-HT2C receptor (setting [2]) came out at 95%. Further, the EC50 at human 5-HT2C receptor was found to be 3 nM.
The like results for `NCC1Cc2cc(F)cc(-c3c(Cl)cccc3Cl)c2O1` (racemic) [Example 230, (±)-{[7-(2,6-dichlorophenyl)-5-fluoro-2,3-dihydro-1-benzofuran-2-yl]methyl}amine] were, in that order, 0.6 nM, 90% and 48 nM.
On the same counts, the results for `CN(C)CC1Cc2cc(F)cc(-c3c(Cl)cccc3Cl)c2O1` (racemic) [Example 237, (±)-{[7-(2,6-dichlorophenyl)-5-fluoro-2,3-dihydro-1-benzofuran-2-yl]methyl}dimethylamine] are 0.57 nM, 80% and 3 nM.
For the compound `NCC1Cc2cc(Cl)cc(-c3ccccc3F)c2O1` (racemic) [Example 241, (±)-{[5-chloro-7-(2-fluorophenyl)-2,3-dihydro-1-benzofuran-2-yl]methyl}amine], in assay [1], the Ki was 0.3 nM. Besides, the Emax on human 5-HT2C receptor (setting [2]) turned out to be 90%. For the same compound, at human 5-HT2C receptor, the EC50 was determined as 29 nM.
The like results for `COc1ccccc1-c1cc(Cl)cc2c1OC(CN)C2` (racemic) [Example 242, (±)-{[5-chloro-7-(2-methoxyphenyl)-2,3-dihydro-1-benzofuran-2-yl]methyl}amine] were, in that order, 3 nM, 90% and 48 nM.
On the same counts, the results for `NCC1Cc2cc(Cl)cc(-c3ccoc3)c2O1` (racemic) [Example 243, (±)-{[5-chloro-7-(3-furyl)-2,3-dihydro-1-benzofuran-2-yl]methyl}amine] are 0.25 nM, 90% and 50 nM.
